# Data reported in PMC4710522, “A Novel Triazolopyridine-Based Spleen Tyrosine Kinase Inhibitor That Arrests Joint Inflammation” (PLoS ONE, 2016).
# Values joined by “and” are separate entries in the source; they are usually repeats but may differ in a detail not shown here. Equal entries are not always repeated. Where two headings read alike, the source gives them in different places.
# Columns and labels:
# Experiment in all cases: SelectScreen kinase assay
# Assay type in all cases: biochemical
# ALK4_h = target: T1, ALK4_h (Homo sapiens, UniProt P36896); details: KM ATP, read-out: % control
# T1 construct: purchased Life Technologies (Invitrogen) SelectScreen, Z'-LYTE / Adapta
# Summary of the method: (§1)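 Each enzyme is assayed by Z'-Lyte or Adapta with the compound at a constant 3 µM. ATP is used at that enzyme's KM or at 10 or 100 µM. Activity is expressed relative to DMSO-only controls.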
# ARK5_h = target: T2, ARK5_h (Homo sapiens, UniProt O60285); details: KM ATP, read-out: % control
# T2 construct: purchased Life Technologies (Invitrogen) SelectScreen, Z'-LYTE / Adapta
# Summary of the method: as §1
# Abl_T315I_h = target: T3, Abl_T315I_h (Homo sapiens, UniProt P00519, T315I); details: KM ATP, read-out: % control
# T3 construct: purchased Life Technologies (Invitrogen) SelectScreen, Z'-LYTE / Adapta
# Summary of the method: as §1
# BRK_h = target: T4, BRK_h (Homo sapiens, UniProt Q13882); details: KM ATP, read-out: % control
# T4 construct: purchased Life Technologies (Invitrogen) SelectScreen, Z'-LYTE / Adapta
# T4 sequence (Q13882 whole entry): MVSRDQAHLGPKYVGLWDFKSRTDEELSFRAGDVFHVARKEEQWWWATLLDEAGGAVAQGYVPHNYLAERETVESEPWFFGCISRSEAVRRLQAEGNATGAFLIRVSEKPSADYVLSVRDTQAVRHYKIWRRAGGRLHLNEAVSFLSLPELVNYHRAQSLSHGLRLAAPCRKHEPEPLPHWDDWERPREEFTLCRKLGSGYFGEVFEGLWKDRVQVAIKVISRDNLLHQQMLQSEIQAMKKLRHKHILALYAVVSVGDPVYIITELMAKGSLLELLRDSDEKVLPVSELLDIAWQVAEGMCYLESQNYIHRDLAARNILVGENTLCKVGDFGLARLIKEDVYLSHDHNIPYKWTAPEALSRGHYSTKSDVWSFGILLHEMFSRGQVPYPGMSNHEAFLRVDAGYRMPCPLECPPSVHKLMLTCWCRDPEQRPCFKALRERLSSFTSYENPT
# Summary of the method: as §1
# CK1-gamma1_h = target: T5, CK1-gamma1_h (Homo sapiens, UniProt Q9HCP0); details: KM ATP, read-out: % control
# T5 construct: purchased Life Technologies (Invitrogen) SelectScreen, Z'-LYTE / Adapta
# Summary of the method: as §1
# EGFR_L858R_h = target: T6, EGFR_L858R_h (Homo sapiens, UniProt P00533, L858R); details: KM ATP, read-out: % control
# T6 construct: purchased Life Technologies (Invitrogen) SelectScreen, Z'-LYTE / Adapta
# Summary of the method: as §1
# EGFR_L861Q_h = target: T7, EGFR_L861Q_h (Homo sapiens, UniProt P00533, L861Q); details: KM ATP, read-out: % control
# T7 construct: purchased Life Technologies (Invitrogen) SelectScreen, Z'-LYTE / Adapta
# Summary of the method: as §1
# EphA4_h = target: T8, EphA4_h (Homo sapiens, UniProt P54764); details: KM ATP, read-out: % control
# T8 construct: purchased Life Technologies (Invitrogen) SelectScreen, Z'-LYTE / Adapta
# Summary of the method: as §1
# Flt1_h = target: T9, Flt1_h (Homo sapiens, UniProt P17948); details: KM ATP, read-out: % control
# T9 construct: purchased Life Technologies (Invitrogen) SelectScreen, Z'-LYTE / Adapta
# Summary of the method: as §1
# GRK7_h = target: T10, GRK7_h (Homo sapiens, UniProt Q8WTQ7); details: KM ATP, read-out: % control
# T10 construct: purchased Life Technologies (Invitrogen) SelectScreen, Z'-LYTE / Adapta
# T10 sequence (Q8WTQ7 whole entry): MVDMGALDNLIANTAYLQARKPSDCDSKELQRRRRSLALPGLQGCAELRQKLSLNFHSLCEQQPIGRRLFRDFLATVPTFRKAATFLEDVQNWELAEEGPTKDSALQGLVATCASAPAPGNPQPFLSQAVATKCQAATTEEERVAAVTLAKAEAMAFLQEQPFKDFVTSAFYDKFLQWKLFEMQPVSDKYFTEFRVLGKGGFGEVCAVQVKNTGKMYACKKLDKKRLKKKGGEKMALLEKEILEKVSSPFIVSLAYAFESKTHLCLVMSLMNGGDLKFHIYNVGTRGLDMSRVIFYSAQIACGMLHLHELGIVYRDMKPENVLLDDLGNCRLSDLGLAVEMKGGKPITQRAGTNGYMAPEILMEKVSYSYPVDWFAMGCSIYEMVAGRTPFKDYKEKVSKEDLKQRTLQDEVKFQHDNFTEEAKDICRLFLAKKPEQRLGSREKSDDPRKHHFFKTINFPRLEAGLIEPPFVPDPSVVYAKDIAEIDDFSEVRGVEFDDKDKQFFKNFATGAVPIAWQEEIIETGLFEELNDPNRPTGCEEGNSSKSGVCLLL
# Summary of the method: as §1
# Gck_h = target: T11, Gck_h (Homo sapiens, UniProt Q12851); details: KM ATP, read-out: % control
# T11 construct: purchased Life Technologies (Invitrogen) SelectScreen, Z'-LYTE / Adapta
# Summary of the method: as §1
# HIPK1_h = target: T12, HIPK1_h (Homo sapiens, UniProt Q86Z02); details: KM ATP, read-out: % control
# T12 construct: purchased Life Technologies (Invitrogen) SelectScreen, Z'-LYTE / Adapta
# Summary of the method: as §1
# IKK1_h = target: T13, IKK1_h (Homo sapiens, UniProt O15111); details: KM ATP, read-out: % control
# T13 construct: purchased Life Technologies (Invitrogen) SelectScreen, Z'-LYTE / Adapta
# Summary of the method: as §1
# IRAK1_h = target: T14, IRAK1_h (Homo sapiens, UniProt P51617); details: KM ATP, read-out: % control
# T14 construct: purchased Life Technologies (Invitrogen) SelectScreen, Z'-LYTE / Adapta
# Summary of the method: as §1
# JAK1_h = JAK1_h (Homo sapiens, UniProt P23458)
# JAK1_h, sequence (P23458 whole entry): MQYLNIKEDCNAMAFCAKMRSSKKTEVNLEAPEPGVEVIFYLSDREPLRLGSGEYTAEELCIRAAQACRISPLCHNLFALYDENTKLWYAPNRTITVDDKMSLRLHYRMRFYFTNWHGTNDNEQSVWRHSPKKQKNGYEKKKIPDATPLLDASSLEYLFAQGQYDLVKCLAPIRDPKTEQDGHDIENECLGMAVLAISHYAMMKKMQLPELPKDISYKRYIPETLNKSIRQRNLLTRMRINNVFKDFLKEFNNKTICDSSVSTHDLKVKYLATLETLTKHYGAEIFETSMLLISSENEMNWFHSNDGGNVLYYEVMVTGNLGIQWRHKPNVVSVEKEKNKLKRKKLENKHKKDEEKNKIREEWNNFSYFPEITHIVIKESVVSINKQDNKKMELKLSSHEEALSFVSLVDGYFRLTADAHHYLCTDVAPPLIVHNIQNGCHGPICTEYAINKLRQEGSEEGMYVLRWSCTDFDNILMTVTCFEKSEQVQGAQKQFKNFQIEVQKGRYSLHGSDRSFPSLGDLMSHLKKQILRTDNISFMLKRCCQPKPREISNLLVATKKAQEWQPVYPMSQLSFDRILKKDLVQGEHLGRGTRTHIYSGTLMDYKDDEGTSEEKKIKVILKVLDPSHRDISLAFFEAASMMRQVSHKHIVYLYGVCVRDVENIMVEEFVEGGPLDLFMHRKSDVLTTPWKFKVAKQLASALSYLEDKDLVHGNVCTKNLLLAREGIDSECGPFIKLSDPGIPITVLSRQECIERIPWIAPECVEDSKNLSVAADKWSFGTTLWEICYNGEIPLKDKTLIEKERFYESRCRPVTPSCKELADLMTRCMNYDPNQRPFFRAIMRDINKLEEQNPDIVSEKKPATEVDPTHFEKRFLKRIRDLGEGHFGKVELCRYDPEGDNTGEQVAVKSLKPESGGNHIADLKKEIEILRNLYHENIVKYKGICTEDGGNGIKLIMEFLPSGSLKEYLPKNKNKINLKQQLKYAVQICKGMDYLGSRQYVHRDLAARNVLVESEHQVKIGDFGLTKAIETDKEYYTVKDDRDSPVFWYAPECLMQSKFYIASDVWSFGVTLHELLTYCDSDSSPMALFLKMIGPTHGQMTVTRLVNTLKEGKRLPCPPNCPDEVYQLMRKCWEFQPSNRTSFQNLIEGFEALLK
# Summary of the method: as §1
# JAK2-JH1-JH2_V617F_h = target: T15, JAK2-JH1-JH2_V617F_h (Homo sapiens, UniProt O60674, V617F); details: KM ATP, read-out: % control
# T15 construct: purchased Life Technologies (Invitrogen) SelectScreen, Z'-LYTE / Adapta
# Summary of the method: as §1
# MAPKAP-K2_h = target: T16, MAPKAP-K2_h (Homo sapiens, UniProt P49137); details: KM ATP, read-out: % control
# T16 construct: purchased Life Technologies (Invitrogen) SelectScreen, Z'-LYTE / Adapta
# Summary of the method: as §1
# MARK3_h = target: T17, MARK3_h (Homo sapiens, UniProt P27448); details: KM ATP, read-out: % control
# T17 construct: purchased Life Technologies (Invitrogen) SelectScreen, Z'-LYTE / Adapta
# Summary of the method: as §1
# MLK1_h = target: T18, MLK1_h (Homo sapiens, UniProt P80192); details: KM ATP, read-out: % control
# T18 construct: purchased Life Technologies (Invitrogen) SelectScreen, Z'-LYTE / Adapta
# Summary of the method: as §1
# MST3_h = target: T19, MST3_h (Homo sapiens, UniProt Q9Y6E0); details: KM ATP, read-out: % control
# T19 construct: purchased Life Technologies (Invitrogen) SelectScreen, Z'-LYTE / Adapta
# Summary of the method: as §1
# MuSK_h = target: T20, MuSK_h (Homo sapiens, UniProt O15146); details: KM ATP, read-out: % control
# T20 construct: purchased Life Technologies (Invitrogen) SelectScreen, Z'-LYTE / Adapta
# Summary of the method: as §1
# PDK1_h = target: T21, PDK1_h (Homo sapiens, UniProt O15530); details: read-out: % control
# T21 construct: purchased Life Technologies (Invitrogen) SelectScreen, Z'-LYTE / Adapta
# T21 sequence (O15530 whole entry): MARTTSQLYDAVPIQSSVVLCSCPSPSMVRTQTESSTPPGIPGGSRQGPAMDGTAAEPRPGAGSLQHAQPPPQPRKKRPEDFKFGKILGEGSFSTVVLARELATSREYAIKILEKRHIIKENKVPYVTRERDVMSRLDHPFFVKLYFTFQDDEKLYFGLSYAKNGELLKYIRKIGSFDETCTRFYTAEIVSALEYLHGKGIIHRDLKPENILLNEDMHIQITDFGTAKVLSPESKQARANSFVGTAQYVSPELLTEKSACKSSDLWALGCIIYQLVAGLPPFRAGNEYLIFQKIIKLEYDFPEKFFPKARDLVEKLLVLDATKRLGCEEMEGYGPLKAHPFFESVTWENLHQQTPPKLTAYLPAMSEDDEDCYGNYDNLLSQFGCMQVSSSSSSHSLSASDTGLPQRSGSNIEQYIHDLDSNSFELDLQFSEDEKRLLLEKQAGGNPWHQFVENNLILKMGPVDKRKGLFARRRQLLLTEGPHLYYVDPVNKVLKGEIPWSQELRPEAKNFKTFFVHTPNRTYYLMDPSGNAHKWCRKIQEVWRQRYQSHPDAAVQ
# Summary of the method: as §1
# PKB-gamma_h = target: T22, PKB-gamma_h (Homo sapiens, UniProt Q9Y243); details: KM ATP, read-out: % control
# T22 construct: purchased Life Technologies (Invitrogen) SelectScreen, Z'-LYTE / Adapta
# Summary of the method: as §1
# PKC-delta_h = target: T23, PKC-delta_h (Homo sapiens, UniProt Q05655); details: KM ATP, read-out: % control
# T23 construct: purchased Life Technologies (Invitrogen) SelectScreen, Z'-LYTE / Adapta
# T23 sequence (Q05655 whole entry): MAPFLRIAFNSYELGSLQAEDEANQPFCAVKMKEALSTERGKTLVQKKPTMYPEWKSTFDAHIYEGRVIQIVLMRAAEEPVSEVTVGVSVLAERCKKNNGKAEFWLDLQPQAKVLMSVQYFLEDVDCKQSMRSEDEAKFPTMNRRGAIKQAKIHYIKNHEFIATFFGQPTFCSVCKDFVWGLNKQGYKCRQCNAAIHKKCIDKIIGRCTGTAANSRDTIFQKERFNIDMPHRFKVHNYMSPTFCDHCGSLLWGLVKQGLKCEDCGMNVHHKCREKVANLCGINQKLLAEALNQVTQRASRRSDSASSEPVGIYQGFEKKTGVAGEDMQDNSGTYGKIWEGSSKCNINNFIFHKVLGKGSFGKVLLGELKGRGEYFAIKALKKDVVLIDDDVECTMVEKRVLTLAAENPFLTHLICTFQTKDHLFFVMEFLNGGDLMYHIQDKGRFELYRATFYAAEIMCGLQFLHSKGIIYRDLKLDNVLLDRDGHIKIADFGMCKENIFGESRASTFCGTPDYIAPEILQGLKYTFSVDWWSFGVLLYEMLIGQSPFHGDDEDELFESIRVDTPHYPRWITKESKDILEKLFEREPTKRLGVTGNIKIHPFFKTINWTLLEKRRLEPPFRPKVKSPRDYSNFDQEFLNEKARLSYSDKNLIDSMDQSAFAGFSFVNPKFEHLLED
# Summary of the method: as §1
# PRKG1_h = target: T24, PRKG1_h (Homo sapiens, UniProt Q13976); details: KM ATP, read-out: % control
# T24 construct: purchased Life Technologies (Invitrogen) SelectScreen, Z'-LYTE / Adapta
# Summary of the method: as §1
# PRKG2_h = target: T25, PRKG2_h (Homo sapiens, UniProt Q13237); details: KM ATP, read-out: % control
# T25 construct: purchased Life Technologies (Invitrogen) SelectScreen, Z'-LYTE / Adapta
# Summary of the method: as §1
# Plk1_h = target: T26, Plk1_h (Homo sapiens, UniProt P53350); details: KM ATP, read-out: % control
# T26 construct: purchased Life Technologies (Invitrogen) SelectScreen, Z'-LYTE / Adapta
# Summary of the method: as §1
# Ret_Y791F_h = target: T27, Ret_Y791F_h (Homo sapiens, UniProt P07949, Y791F); details: KM ATP, read-out: % control
# T27 construct: purchased Life Technologies (Invitrogen) SelectScreen, Z'-LYTE / Adapta
# Summary of the method: as §1
# SIK2_h = target: T28, SIK2_h (Homo sapiens, UniProt Q9H0K1); details: KM ATP, read-out: % control
# T28 construct: purchased Life Technologies (Invitrogen) SelectScreen, Z'-LYTE / Adapta
# Summary of the method: as §1
# Syk_h = Syk_h (Homo sapiens, UniProt P43405)
# Summary of the method: as §1
# TrkB_h = target: T29, TrkB_h (Homo sapiens, UniProt Q16620); details: KM ATP, read-out: % control
# T29 construct: purchased Life Technologies (Invitrogen) SelectScreen, Z'-LYTE / Adapta
# T29 sequence (Q16620 32-822): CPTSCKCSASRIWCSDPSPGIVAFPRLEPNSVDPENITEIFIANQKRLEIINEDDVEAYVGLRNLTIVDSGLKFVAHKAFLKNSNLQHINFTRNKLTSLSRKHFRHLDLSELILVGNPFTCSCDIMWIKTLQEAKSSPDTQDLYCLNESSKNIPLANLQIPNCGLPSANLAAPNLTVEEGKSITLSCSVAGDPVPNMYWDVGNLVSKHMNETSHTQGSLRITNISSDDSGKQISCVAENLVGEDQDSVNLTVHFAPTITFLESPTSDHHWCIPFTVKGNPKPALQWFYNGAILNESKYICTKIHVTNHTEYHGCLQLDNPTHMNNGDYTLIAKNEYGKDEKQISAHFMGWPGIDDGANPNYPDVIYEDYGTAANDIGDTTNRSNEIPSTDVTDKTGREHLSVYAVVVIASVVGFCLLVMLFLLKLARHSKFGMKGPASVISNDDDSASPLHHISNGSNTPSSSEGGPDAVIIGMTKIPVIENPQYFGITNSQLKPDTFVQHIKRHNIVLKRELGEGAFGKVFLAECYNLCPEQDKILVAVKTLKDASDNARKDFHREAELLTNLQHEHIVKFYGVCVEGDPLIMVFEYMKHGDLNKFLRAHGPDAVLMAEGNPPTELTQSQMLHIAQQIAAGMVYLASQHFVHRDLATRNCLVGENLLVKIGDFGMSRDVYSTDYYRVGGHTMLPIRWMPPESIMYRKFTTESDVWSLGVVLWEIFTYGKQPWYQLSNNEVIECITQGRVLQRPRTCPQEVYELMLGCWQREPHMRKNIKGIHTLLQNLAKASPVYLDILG
# Summary of the method: as §1
# ZAP-70_h = ZAP-70_h (Homo sapiens, UniProt P43403)
# ZAP-70_h, sequence (P43403 whole entry): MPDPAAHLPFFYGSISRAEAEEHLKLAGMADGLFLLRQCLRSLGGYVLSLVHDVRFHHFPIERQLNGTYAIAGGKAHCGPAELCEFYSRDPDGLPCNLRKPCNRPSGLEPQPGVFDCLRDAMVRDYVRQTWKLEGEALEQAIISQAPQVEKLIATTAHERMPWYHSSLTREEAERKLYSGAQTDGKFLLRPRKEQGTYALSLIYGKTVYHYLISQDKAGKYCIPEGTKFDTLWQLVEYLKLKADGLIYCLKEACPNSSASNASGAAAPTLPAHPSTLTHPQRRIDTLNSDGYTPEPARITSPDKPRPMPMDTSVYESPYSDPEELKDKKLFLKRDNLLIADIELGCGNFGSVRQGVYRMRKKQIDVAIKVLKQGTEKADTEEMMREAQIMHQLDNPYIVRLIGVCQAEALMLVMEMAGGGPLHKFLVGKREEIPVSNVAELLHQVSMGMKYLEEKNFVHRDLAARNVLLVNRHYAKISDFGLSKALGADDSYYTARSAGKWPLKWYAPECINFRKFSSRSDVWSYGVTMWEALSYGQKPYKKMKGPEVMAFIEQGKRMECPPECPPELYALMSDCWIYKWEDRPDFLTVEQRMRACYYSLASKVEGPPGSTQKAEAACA
# Summary of the method: as §1
# cKit_T670I_h = target: T30, cKit_T670I_h (Homo sapiens, UniProt P10721, T670I); details: KM ATP, read-out: % control
# T30 construct: purchased Life Technologies (Invitrogen) SelectScreen, Z'-LYTE / Adapta
# Summary of the method: as §1
# [1] = 3 µM, KM ATP, read-out: % control
# [2] = 10-point dose-response, commercial vendor
structure (smiles),measurement,setting,value
"c1cc(CC2CCOCC2)n2nc(Nc3ccc4c(NC5CCOCC5)n[nH]c4c3)nc2c1 [CC-509, [3-(2H-3,4,5,6-tetrahydropyran-4-ylamino)(1H-indazol-6-yl)][5-(2H-3,4,5,6-tetrahydropyran-4-ylmethyl)(2H-1,2,4-triazolo[1,5-a]pyridin-2-yl)]amine]",remaining activity at 3 µM,ALK4_h,107%
same,remaining activity at 3 µM,ARK5_h,7%
same,remaining activity at 3 µM,Abl_T315I_h,34%
same,remaining activity at 3 µM,BRK_h,87%
same,remaining activity at 3 µM,CK1-gamma1_h,54%
same,remaining activity at 3 µM,EGFR_L858R_h,101%
same,remaining activity at 3 µM,EGFR_L861Q_h,97%
same,remaining activity at 3 µM,EphA4_h,76%
same,remaining activity at 3 µM,Flt1_h,55%
same,remaining activity at 3 µM,GRK7_h,94%
same,remaining activity at 3 µM,Gck_h,57%
same,remaining activity at 3 µM,HIPK1_h,94%
same,remaining activity at 3 µM,IKK1_h,106%
same,remaining activity at 3 µM,IRAK1_h,20%
same,remaining activity at 3 µM,JAK1_h; [1],0%
same,IC50,JAK1_h; [2],40 nM and 44 nM
same,remaining activity at 3 µM,JAK2-JH1-JH2_V617F_h,8%
same,remaining activity at 3 µM,MAPKAP-K2_h,96%
same,remaining activity at 3 µM,MARK3_h,42%
same,remaining activity at 3 µM,MLK1_h,2%
same,remaining activity at 3 µM,MST3_h,107%
same,remaining activity at 3 µM,MuSK_h,41%
same,remaining activity at 3 µM,PDK1_h; 100 µM ATP,78%
same,remaining activity at 3 µM,PDK1_h; KM ATP,47%
same,remaining activity at 3 µM,PKB-gamma_h,99%
same,remaining activity at 3 µM,PKC-delta_h,91%
same,remaining activity at 3 µM,PRKG1_h,96%
same,remaining activity at 3 µM,PRKG2_h,93%
same,remaining activity at 3 µM,Plk1_h,88%
same,remaining activity at 3 µM,Ret_Y791F_h,18%
same,remaining activity at 3 µM,SIK2_h,6%
same,remaining activity at 3 µM,Syk_h; [1],-2%
same,IC50,Syk_h; [2],27.3 nM
same,remaining activity at 3 µM,TrkB_h,34%
same,remaining activity at 3 µM,ZAP-70_h; [1],70%
same,IC50,ZAP-70_h; [2],> 3000 nM
same,remaining activity at 3 µM,cKit_T670I_h,83%
